According to US20240208895A1, “BRANCHED-CHAIN AMINO ACID DERIVATIVES TO TREAT DISEASE” (INTRABIO LTD., priority 2021, published 2024):
Read-outs that look alike come from different tables or passages of the source.

Key:
[1] = Method: (§1) A Compound of the Disclosure is incubated at 1 μM, 10 μM and 100 μM with pooled liver S9 fractions from human (mixed gender) and mouse (CD1) at 1.5 mg/mL in 300 μL buffer containing phosphate 100 mM, MgCl2 2 mM, pH 7.4 at 37° C. for 0, 10, 20, 40, 60 min.
(§2) Enzyme kinetic data for uptake and metabolism of a Compound of the Disclosure is analysed by fitting the Michaelis-Menten equation to the data. V0=Vmax[S]/Km+[S], where V0 is initial velocity, [S] is substrate concentration, Vmax is maximum velocity and Km is substrate concentration at half Vmax. All fitting is performed using GraphPad Prism 8.4 software (GraphPad Software Inc). No weighting scheme is applied.

[2] = remark: listed apart in the source
Method: as §1, §2

[3] = target: T1, monocarboxylate transporter (MCT1) (Homo sapiens, UniProt P53985); experiment: Inhibition of MCT1 uptake of known substrate 2-thiophene glyoxylate; format: cell-based; parameters: expressed in transfected cells
T1 sequence (P53985 1-500): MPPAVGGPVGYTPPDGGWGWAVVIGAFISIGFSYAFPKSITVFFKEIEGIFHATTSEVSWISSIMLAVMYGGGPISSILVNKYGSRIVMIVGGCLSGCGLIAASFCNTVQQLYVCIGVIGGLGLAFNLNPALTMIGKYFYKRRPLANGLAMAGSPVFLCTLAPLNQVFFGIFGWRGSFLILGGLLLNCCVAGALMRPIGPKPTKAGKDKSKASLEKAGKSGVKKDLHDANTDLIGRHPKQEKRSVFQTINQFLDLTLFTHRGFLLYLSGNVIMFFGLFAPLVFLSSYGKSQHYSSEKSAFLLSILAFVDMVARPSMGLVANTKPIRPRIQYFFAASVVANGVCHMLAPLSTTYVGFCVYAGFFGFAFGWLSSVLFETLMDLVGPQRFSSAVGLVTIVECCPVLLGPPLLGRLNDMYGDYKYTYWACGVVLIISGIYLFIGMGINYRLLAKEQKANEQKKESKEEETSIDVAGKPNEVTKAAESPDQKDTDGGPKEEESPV
Method: FIG. 4(c) is a line graph showing concentration-inhibition curves for the inhibition of uptake of the known substrate 2-thiophene glyoxylate (500 μM) for MCT1. DMSO (0.5%) was the solvent control (SC) and the known inhibitor phloretin (500 μM) was the positive control (PC).
FIG. 4(d) is a line graph showing concentration-inhibition curves for the inhibition of uptake of the known substrate 2-thiophene glyoxylate (500 μM) for MCT1. DMSO (0.5%) was the solvent control (SC) and the known inhibitor phloretin (500 μM) was the positive control (PC).
The known probe substrates used as positive controls are 3 μM chlorothiazide for OAT1, 2 μM estrone-3-sulfate for OAT3, 10 μM gabapentin for LAT1, 50 μM Gly-Sar for PepT1, 500 μM thiophene-2-glyoxylic acid for MCT1.
The IC50 value for the test item is determined by fitting the Hill equation in the following form:
where A % is the percent activity remaining (the mean cellular uptake observed in the solvent control sample set to 100% and the mean cellular uptake observed in the presence of the positive control inhibitor set to 0%), Top and Bottom are the upper and lower plateau of A %. [I] is the inhibitor concentration and IC50 is the inhibitor concentration where the remaining activity is at the midpoint between the Top and Bottom.

[4] = target: T2, human transporter MCT1 (Homo sapiens, UniProt P53985); experiment: Human MCT1-mediated transport in MDCK-II cells (Example 9); format: cell-based; details: MDCK-II cells expressing human MCT1, pH 5.5, 1 minute, normalized to Vmax of thiophene-2-glyoxylic acid
T2 construct: expressed in transfected cells; host or cells: MDCK-II
T2 sequence (P53985 1-500): T1 sequence (P53985 1-500)
Method: Representative Compounds of the Disclosure are tested in (i) MDCK-II cells expressing human transporter MCT1; and (ii) MDCK-II cells transfected with a control vector (GFP) as control cells for human transporter MCT1. 2-Thiophene-glyoxylic acid (TPGA) is the positive control for transport.
• 1. A stock solution is prepared with the test article (Compound of the Disclosure) in DMSO or in HBSS-Bis-Tris. • 2. Final assay solutions of probe substrate or test article contain 0.5% (v/v) DMSO (vehicle control). • 3. Test article concentrations are 10 μM, 30 μM, 100 μM, 300 μM, 1000 μM, 3000 μM, and 10000 μM.
MDCK-II cells are maintained in DMEM with low glucose and 10% FBS. Cells passages up to 40 are seeded at 60K±10K cells/well on 96-well, transwell membrane plates approximately 24 hours before transfection. Transport assays are carried out approximately 48 hours after transfection.
• 1. Test system: • a. Test system: 96-well cell culture plate with wells containing a monolayer of MDCK-II cells grown on a permeable support and a corresponding 96-well receiver tray. Cell plates are maintained at 37° C. in 5% CO2 atmosphere prior to initiation of the transport experiment. • b. Pre-incubation is conducted in HBSS, pH 7.4. Transport experiments are conducted in HBSS with Bis-Tris, pH 5.5, without phenol red. Pre-incubation and incubation are conducted at ambient temperatures. • c. Each condition is run in triplicate wells. • d. […] The result from the control cells is used to correct for substrate permeation by routes other than the transporter being investigated in the study. • 2. Prepare the 96-well plate as follows: • a. Wash the basal side of the culture plate insert with HBSS three times. After the final wash, blot the basal side of the wells and keep this side dry. • b. Wash the culture plate wells with HBSS three times. The wells of the culture plate serve as the apical compartment. • 3. Aspirate the final wash from the culture plate. The wells of the culture plate serve as the apical compartment. Add 100 μL of HBSS pH 7.4 pre-incubation buffer containing vehicle to the apical compartments. • 4. Incubate the plates with orbital shaking at approximately 60 RPM for the pre-incubation time specified in Table 1 of this protocol. • 5. Aspirate the pre-incubation buffer from the apical compartment of the plates. Add 100 μL of the experimental buffer that is prepared as follows and maintained at ambient temperatures. • a. For the probe substrate transport assay, the HBSS with Bis-Tris, pH 5.5 in each well contains the probe substrate at 500 μM (positive control for transport) and vehicle control. • b. For the test article assays, the HBSS with Bis-Tris, pH 5.5 in each well contains the test article at 10 μM, 30 μM, 100 μM, 300 μM, 1000 μM, 3000 μM, and 10000 μM. • 6. Incubate at ambient temperature with orbital shaking at approximately 60 RPM for the incubation time of 1 minute. • 7. […]
• 1. The amount of radiolabeled probe substrate will be quantified with radiometric detection on a 1450 Microbeta (Perkin-Elmer). • 2. The amount of non-radiolabeled probe substrate or test article will be quantified by LC-MS/MS. • 3. […] For uptake assays, the net transporter-mediated uptake rate (V) of the substrate by each SLC transporter will be calculated as follows:
[formula] • 5. For transport kinetics assessment, Km and Vmax will be calculated by non-linear regression using the Michaelis-Menten equation. • 6. […]

[5] = target: T3, LAT1 (Homo sapiens, UniProt Q01650); experiment: LAT1 transporter-mediated cellular uptake (substrate test); format: cell-based; details: uptake 3 min, 37° C.
T3 construct: expressed in transfected cells
T3 sequence (Q01650 whole entry): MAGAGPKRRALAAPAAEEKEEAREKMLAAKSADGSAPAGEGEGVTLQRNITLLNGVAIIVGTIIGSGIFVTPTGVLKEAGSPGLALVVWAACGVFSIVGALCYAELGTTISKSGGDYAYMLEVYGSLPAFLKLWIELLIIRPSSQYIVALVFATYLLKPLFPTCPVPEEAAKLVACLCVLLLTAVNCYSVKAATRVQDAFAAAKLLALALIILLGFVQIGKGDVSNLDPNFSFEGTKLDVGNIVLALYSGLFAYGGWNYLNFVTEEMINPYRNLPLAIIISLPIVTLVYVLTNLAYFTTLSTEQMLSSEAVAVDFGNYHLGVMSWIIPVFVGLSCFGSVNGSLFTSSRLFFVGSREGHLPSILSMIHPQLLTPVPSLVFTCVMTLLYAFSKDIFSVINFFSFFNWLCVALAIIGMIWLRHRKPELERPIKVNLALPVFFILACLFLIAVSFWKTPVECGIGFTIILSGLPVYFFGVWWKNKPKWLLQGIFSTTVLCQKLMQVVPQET
T3 sequence (P08195 102-630 partner): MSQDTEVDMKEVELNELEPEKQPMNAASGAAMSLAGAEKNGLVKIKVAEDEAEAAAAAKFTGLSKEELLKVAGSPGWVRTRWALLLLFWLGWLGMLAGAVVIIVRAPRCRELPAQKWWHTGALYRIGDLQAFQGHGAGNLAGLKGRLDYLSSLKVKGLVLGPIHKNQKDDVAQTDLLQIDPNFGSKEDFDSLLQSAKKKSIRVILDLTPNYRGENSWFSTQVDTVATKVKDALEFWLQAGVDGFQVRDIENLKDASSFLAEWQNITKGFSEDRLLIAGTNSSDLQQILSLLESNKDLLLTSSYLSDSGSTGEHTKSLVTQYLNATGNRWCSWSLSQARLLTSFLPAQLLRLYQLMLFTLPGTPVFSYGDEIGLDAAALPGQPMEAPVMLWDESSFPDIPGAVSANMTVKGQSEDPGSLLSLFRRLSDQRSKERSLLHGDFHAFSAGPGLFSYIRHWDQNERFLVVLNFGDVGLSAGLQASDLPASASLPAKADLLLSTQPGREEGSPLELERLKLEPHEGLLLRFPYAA
Method: DMSO (0.5%) was the solvent control (SC) and the known inhibitor for the positive control (PC) was JPH203 (10 μM). Data were fit to either the Michaelis-Menten equation for uptake or the Hill equation for inhibition using the solvent control to define the top and the positive control inhibitor to define the bottom. Symbols represent the mean±SEM, n=3.
Human OAT1 (SLC22A6) and OAT3 (SLC22A8) overexpressing HEK-293 cells and control cells without transfected transporter (Corning® TransportoCells™) are plated to 24-well plates and cellular uptake of 10 to 100 μg/mL of a Compound of the Disclosure is measured in the absence and presence of transporter inhibitors. Uptake of a Compound of the Disclosure into control cells is measured only without chemical inhibitors. […] Cells are grown in DMEM (Gibco 4196, high glucose, without sodium pyruvate) supplemented with MEM non-essential amino acids and 10% fetal bovine serum. Cells are re-fed with fresh medium after attachment (4-6 hours post-seeding). Cell are plated at a density of 4×10^5/well in 24-well plates coated with poly-D-lysine. Transporter assays are conducted in 400 μL of HBSS supplemented with 10 mM Hepes, pH 7.4
The known probe substrates used as positive controls are 3 μM chlorothiazide for OAT1, 2 μM estrone-3-sulfate for OAT3, 10 μM gabapentin for LAT1, 50 μM Gly-Sar for PepT1, 500 μM thiophene-2-glyoxylic acid for MCT1. […]

[6] = tested on: glycosphingolipid (GSL) biosynthesis; details: LSDs; cited from earlier work
[7] = substrate: CC(=O)N[C@H](CC(C)C)C(=O)O; experiment: cells, lysate or membranes; details: other: uptake 1 min, room temperature

[2H]C([2H])([2H])C([2H])(C([2H])([2H])[2H])C([2H])([2H])C([2H])(NC(C)=O)C(=O)O (racemic) [N-acetyl-DL-[^2H10]leucine]
Vmax, metabolism [1]: 6.8 µmol/min/mg | disappearance, asymptote as % of the initial concentration [1]: ~50% | Vmax, metabolism [2]: 2.6 µmol/min/mg | disappearance, asymptote as % of the initial concentration [2]: ~50%

CC(=O)N[C@H](CC(C)C)C(=O)O [N-acetyl-D-leucine]
Ki ([3]; assuming competitive inhibition, read-out: affinity (Ki) for MCT1, Cheng-Prusoff equation): 1.6 mM | IC50 ([3]; probe substrate 2-thiophene glyoxylate 500 μM): 11 mM

COC(=O)[C@H](CC(C)C)NC(C)=O [N-acetyl-L-leucine methyl ester]
uptake mediated by MCT1 [4]: greatly reduced transport

COC(=O)[C@@H](NC(C)=O)C(C)C [N-acetyl-L-valine methyl ester]
uptake mediated by MCT1 [4]: greatly reduced transport

CC(=O)N[C@@H](CC(C)C)C(=O)O [N-acetyl-leucine]
substrate of LAT1 (uptake) [5]: neither a substrate

CCC(=O)N[C@H](C(=O)O)[C@@H](C)CC [N-propionyl-L-isoleucine]
uptake mediated by MCT1 [4]: transported

CCC(=O)N[C@H](C(=O)O)C(C)C [N-propionyl-L-valine]
uptake mediated by MCT1 [4]: transported

CCCCN1C[C@H](O)[C@@H](O)[C@H](O)[C@H]1CO [miglustat]
benefit in clinical trial of substrate reduction therapy [6]: Some benefit

B1: monocarboxylate transporter (MCT1) (Homo sapiens) (protein)
chain: T1 sequence (P53985 1-500)
Km [7]: 1000 µM
